# Test system: ChAT
# Experiment: ChAT immunoreactivity (MICE assay)
# Type: cell-based, rat
# Experimental: In vitro experiments were used to examine the effects of ethanol on receptor binding and choline acetyltransferase (ChAT) and acetylcholinesterase (AChE) expression in cerebellar neurons. Primary neuronal cultures were generated with postnatal day 8 rat pup cerebellar tissue (Nikolic et al. Genes Dev. 10:816 (1996)). The cultures were maintained with Dulbecco's modified Eagle's medium (DMEM) supplemented with 5% fetal calf serum, 4 mM glutamine, 100 μM non-essential amino acid mixture (Gibco-BRL, Grand Island, N.Y.), 25 mM KCl, and 9 g/L glucose. Ethanol treatment was accomplished by placing the cultures (seeded in 6-well dishes or 96-well plates) in sealed chambers in which 50 mM ethanol was vaporized from a reservoir tray (de la Monte et al. Alcohol Clin. Exp. Res. 24:716 (2000); Banerjee et al. Alcohol Clin. Exp. Res. 22:2093 (1998)). Control cultures were identically treated but with water added to the reservoir tray. The chambers were flushed with gas containing 75% nitrogen, 20% oxygen, and 5% carbon dioxide. After 96 hours incubation at 37° C., the cells were harvested to measure insulin, IGF-I, and IGF-II receptor binding. Alternatively, the cells were serum-starved for 12 hours and then stimulated with 10 nM insulin, […], 25 nM IGF-II, or vehicle for 16 hours, and RNA was harvested to measure ChAT and AChE expression. Parallel 96-well cultures stimulated with growth factors for 10 minutes were used to measure ATP, or for 16 hours to measure viability, and ChAT or AChE immunoreactivity. To investigate the role of membrane cholesterol content in relation to receptor binding, control and ethanol-exposed cells were treated with vehicle, 10 mM Methyl-β-cyclodextrin (MβCD), or 10 mM aqueous soluble cholesterol in Locke's buffer (154 mM NaCl, 5.6 mM KCl, 2.3 mM CaCl2, 1.0 mM MgCl2, 3.6 mM NaHCO3, 5 mM glucose, 5 mM Hepes, pH 7.4) for 3 hours and then harvested for binding assays. To examine the effects of membrane cholesterol content on growth factor stimulated neuronal viability and function, identically treated 96-well cultures were stimulated with vehicle, 10 nM insulin, 10 nM IGF-I, or 25 nM IGF-II for 10 minutes and then analyzed for ATP content, or for 16 hours and then used to measure viability and ChAT or AChE immunoreactivity with the MICE assay (de la Monte et al., Biotechniques 26:1073 (1999)). ATP content was measured with the ATPLite assay (Packard, Meriden, Conn.). Viability was measured using the CyQuant assay (Molecular Probes, Eugene, Oreg.). Immunoreactivity was measured directly in the cultured wells using the microtiter immunocytochemical ELISA (MICE) assay (de la Monte et al., Biotechniques 26:1073 (1999)).
# The concentration of ethanol used was within the range detected in human alcoholics (Fulop et al., Am. J. Med. 80:191 (1986); Jagger et al., Neurosurgery 15:303 (1984)). ChAT and AChE immunoreactivity were measured directly in the cultured cells using the MICE assay (cellular ELISA), with values normalized to cell density.
# The effects of cholesterol or MβCD treatment on neuronal viability (FIGS. 19A-19C), ATP production (energy metabolism; FIGS. 19D-19F), ChAT (FIGS. […]) and AChE (FIGS. 19J-19L) immunoreactivity were examined in cells that were treated as described above and stimulated 12 hours with vehicle (control), 10 nM insulin, 10 nM IGF-I, or 25 nM IGF-II in serum-free medium. All assays were performed using 96-well cultures. Viability was measured using the CyQuant assay and ATP content was measured using the ATPLite assay.
# [1] = 10 mM for 3 hours, control cells
compound,measurement,setting,value
CC(C)CCC[C@@H](C)[C@H]1CC[C@H]2[C@@H]3CC=C4C[C@@H](O)CC[C@]4(C)[C@H]3CC[C@]12C [cholesterol],basal and growth factor stimulated ChAT expression,[1],muted
same,"insulin-, IGF-I-, and IGF-II-stimulated levels of ChAT","10 mM for 3 hours, ethanol-exposed cells, relative to vehicle-treated cells",significantly increased
CCO [ethanol],ChAT immunoreactivity,"50 mM ethanol for 96 hours, basal, insulin-stimulated and IGF-I stimulated, relative to control",significantly reduced
Methyl-β-cyclodextrin [MβCD],IGF-I- and IGF-II-stimulated ChAT,[1],significantly increased
same,insulin-stimulated ChAT,[1],abolished the insulin-stimulated increases in ChAT
same,ChAT expression relative to control,"10 mM for 3 hours, ethanol-exposed cells, independent of growth factor stimulation",broadly reduced levels
